The values that follow come from patent US20260097002A1, “METHOD OF TREATMENT AND DEVICE FOR THE IMPROVED BIOAVAILABILITY OF LEUKOTRIENE RECEPTOR ANTAGONISTS” (INTELGENX CORP., priority 2022, published 2026).

For data set [1] the following is noted: rats dosed with radiolabeled MTL; cited from earlier work.
The conditions of data set [2]: MTL in tablet form; cited from earlier work.
Data set [3] deals with plasma proteins. To be noted: cited from earlier work.
The nature of data set [4]: Clinical study: plasma pharmacokinetics, film vs Singulair tablet. The class given is in vivo. The note with it: human, oral, 10 mg, clinical trials of the film, read-out: Tmax of plasma levels. The procedure:
We have performed a clinical study of our product to determine the pharmacokinetics of the API loaded into this pharmaceutical platform. […] Singulair® is the marketed formulation of MTL, commonly prescribed for asthma sufferers. It consists of a 10 mg loaded API tablet. The Cmax and Tmax values are listed below, see Table 2. […] These higher values for our films means that we could load less API into the film product and achieve the same Cmax/AUC as the Singulair® reference product. The major difference between the disclosed Intelgenx prototype and Singulair® is the physical state of the MTL once it reaches the stomach. In the Singulair® product, the MTL reaches the stomach in a compressed solid state and thus must solubilize in the stomach under unfavorable conditions. […] The MTL is then transferred to the small intestine via the pylori. Since the MTL is already present as a suspended precipitate, the MTL may more easily reach the small intestine through the leaking pylori. It is well known that the pylori is not leak proof and allows some liquid to flow through even in its closed position. […] In particular, the chewable dosage form is about 1.17 times more bioavailable than the tablet when administered in a fasting subject (compared using available bioavailability date shown in Table 2). […]

In general, Tmax refers to the time from dosing to the highest level. For `CC(C)(O)c1ccccc1CC[C@@H](SCC1(CC(=O)O)CC1)c1cccc(/C=C/c2ccc3ccc(Cl)cc3n2)c1` [MTL, Montelukast], the “Distribution across the blood-brain barrier” value in data set [1] is given as “minimal distribution”. In addition, in data set [2], the “Time to maximum concentrations in blood stream” value was 2 to 4 h. Further, the “Bound to plasma proteins” value in data set [3] is “more than 99%”. Further, the Tmax in data set [4] was in the range of 2 to 4 h.
